According to patent publication US20070219208A1, “Methods for Treating Cancer” (priority 2006, published 2007):

How the values were obtained:
[1] = test system: MCF-7 breast cancer cells; experiment: MTT reduction cytotoxicity assay in MCF-7 cells; conditions: pretreatment before simvastatin or fluvastatin (10 μM), 48 h; mevalonate 20 μM, 1400 W 10 μM
Method: MTT Reduction Cytotoxicity Assay:
MTT is taken up by cells and is reduced to a colored formazon product that can be detected by spectrophotometry (max=562 nm). Reduction of MTT is dependent upon the mitochondrial respiratory function, and thus measures the relative number of viable cells in the culture. After the treatment was completed, MCF-7 cells were washed twice with DPBS and taken in a ml of MEM without FBS and incubated with 5 mg/ml MTT solution for 1 h at 37° C. Medium was removed and cells were solubilized in DMSO. The absorption was measured at 562 nm with reference at 630 nm.
We assessed the effectiveness of simvastatin and fluvastatin to induce cytotoxicity in MCF-7 cells. MCF-7 breast cancer cells were treated with fluvastatin or simvastatin at different concentrations (0.5-20 μM) for 24-48 h. The changes in the number of viable cells were determined using the MTT assay that monitors the intracellular conversion of MTT to formazon spectrophotometrically max=562 nm).

iNOS in MCF-7 cells = experiment: iNOS mRNA (RT-PCR) and protein (Western) levels; type: cell-based; conditions: mevalonate 20 μM
Method: After treatment with statins, cells were washed with ice-cold DPBS and resuspended in 150 μl of radioimmune precipitation assay buffer (20 mM Tris-HCl, pH 7.4, 2.5 mM EDTA, 1% Triton X-100, 1% sodium deoxycholate, 1% SDS, 100 mM NaCl, 100 mM sodium fluoride) containing 1 mM sodium vanadate, 10 μg/ml aprotinin, 10 μg/ml leupeptin, and 10 μg/ml pepstatin inhibitors. Cells were homogenized by passing the suspension through a 25-gauge needle (20 strokes). The lysate was centrifuged at 750×g for 10 min at 4° C. to pellet out the nuclei. The remaining supernatant was centrifuged for 30 min at 12,000×g. Protein was determined using the Lowry method and 50 μg of the lysate was used for the Western blot analysis. Proteins were resolved using the SDS-polyacrylamide gels and blotted onto nitrocellulose membranes. Membranes were washed with TBS (140 mM NaCl, 50 mM Tris-HCl, pH 7.2) containing 0.1% Tween 20 (TBST) and 5% skim milk to block the non-specific protein binding. Membranes were incubated with 1 μg/ml rabbit anti-iNOS polyclonal antibody (Abeam, Cambridge, Mass.), mouse anti-cyclin D1 antibody, mouse anti-cyclin E antibody (BD Biosciences, San Jose, Calif.) or rabbit anti-p27 antibody (Chemicon International, Temecula, Calif.) in TBST for overnight at 4° C., washed 5 times with TBST, and then incubated with goat anti-rabbit or rabbit anti-mouse IgG-horseradish peroxidase-conjugated secondary antibody (1:5,000) for 1.5 h at room temperature. The band was detected using the ECL method (Amersham Biosciences).
Following the treatments, medium was aspirated and 1 ml of TRIzol reagent (Invitrogen) was added and total RNA was extracted using the manufacturer's protocol. Five μg of RNA was used for the first strand cDNA synthesis using a first strand cDNA synthesis kit (Amersham Biosciences). […]

MCF-7 cells [2] = experiment: Apoptosis by TUNEL assay; type: cell-based; conditions: with simvastatin or fluvastatin 5-10 μM, 48 h; 1400 W 10 μM, sepiapterin 50 μM, mevalonate 20 μM
From the text: Measurement of Apoptosis by TUNEL Assay:
The terminal deoxynucleotidyl transferase-mediated nick-end labeling (TUNEL) assay was used for microscopic detection of apoptosis (Kotamraju S, et al. J Biol Chem, 277:17179-87, 2002). This assay is based on labeling of 3′ free hydroxyl ends of the fragmented DNA with fluorescein-dUTP catalyzed by terminal deoxynucleotidyl transferase. Procedures were followed according to a commercially available kit (ApoAlert) from Clontech. […] The apoptotic cells were detected by fluorescence microscopy equipped with rhodamine and FITC filters. The quantification of apoptosis was performed using the Metamorph image analysis package.
Under these conditions, NO2^−/NO3^− levels were decreased (FIG. 4B). […] Further verification that iNOS is involved in […] NO was obtained from inhibition of geranylgeranylation and farnesylation. […] In contrast, FTI-277 (farnesylation inhibitor) and sepiapterin had no effect on NO2^−/NO3^− levels (FIG. 4C). […] In the TUNEL assay, cells were treated with simvastatin or fluvastatin (5-10 μM) for 48 h in the presence or absence of 1400 W (10 μM), sepiapterin (50 μM) or mevalonate (20 μM) and stained for TUNEL-positive cells as an index of DNA fragmentation monitored by fluorescence microscopy (original magnification, ×100). Photographs were taken for the overlaid images of propidium iodide-and FITC-stained cells (TUNEL-positive cells). Yellow and red denote apoptotic and nonapoptotic cells, respectively. We observed that the TUNEL positive staining was enhanced in statin-treated MCF-7 cells. […] Pretreatment with 1400 W or mevalonate caused a decrease in the TUNEL positive cells.

MCF-7 cells [3] = experiment: Soft agar assay for colony formation (anchorage-independent growth); type: cell-based; conditions: 1400 W 10 μM or mevalonate 20 μM with statin 10 μM
Method: Soft Agar Assay for Colony Formation:
After cells were treated with various conditions, they were seeded in six-well plates. The plates were first covered with phenol red-free MEM containing 0.6% agar and 10% FBS. The middle layer contained cells (5×10^3) in phenol red-free MEM with 0.35% agar and 10% FBS. The top layer, consisting of the medium, was added to prevent drying of the agar in the plates. The plates were incubated for 21 days, after which the plates were stained in 0.5 ml of 0.005% crystal violet for 1 h and the cultures were inspected and photographed. The colony efficiency (CE) was determined by a count of the number of colonies greater than […] in diameter, which was calculated as the average of colonies counted at 50× magnification in five individual fields manually (Liu S, et al. Oncogene, 23:1256-62, 2004).
The long-term effects of statins and the inhibitors on the proliferation and survival of MCF-7 cells were determined using clonogenic assays (Ramanathan B, et al. Cancer Res, 65:8455-60, 2005). The extent of malignancy of cells corresponds to the attainment of anchorage-independent growth (Liu S, et al. Oncogene, 23:1256-62, 2004). MCF-7 cells were treated with simvastatin or fluvastatin in the presence or absence of either 1400 W or mevalonate or sepiapterin. In separate experiments, cells were treated with either GGTI-298 or FTI-277. At the end of the treatments, approximately 5×10^3 cells were seeded onto a soft agar to determine their clonogenic efficiency after 21 days. […] In the presence of either 1400 W or mevalonate, the colony formation was restored in statin-treated cells (FIG. 6B).

`CC(O)(CCO)CC(=O)O` (stereo not shown) [mevalonate] was tested, and the “effect on statin-induced MCF-7 cell cytotoxicity (MTT assay)” value [1] was “significantly reversed”, the “effect on statin-induced iNOS” value (iNOS in MCF-7 cells) was “inhibited” and the “effect on statin-induced TUNEL-positive cells (proapoptotic effect)” value (MCF-7 cells [2]) was “decrease”. For the same compound, the “colony formation in statin-treated cells in the presence of modulator” value (MCF-7 cells [3]) was “restored”.
